Results on two molecules are retold here after patent US7402603B2, “Cyclooxygenase-2 inhibitor/histone deacetylase inhibitor combination” (Novartis AG, priority 2001, dated 2008).

Series [1] in a line: body weight change and deaths in the mouse model of adenomatous polyposis. The series is classed as in vivo. The following applies: COX 125 ppm in feed ad libitum, HDAI 10 mg/kg i.v. 3x/wk for three weeks. How it is done:
5-methyl-2-(2′-chloro-6′-fluoro-anilino)-phenyl acetic acid (alternatively named [2-(2′-chloro-6′-fluoro-phenylamino)-5-methyl-phenyl]acetic acid; for the preparation see Example 1) (“COX”) and N-hydroxy-3-[4-[[(2-hydroxyethyl)[2-(1H-indol-3-yl)ethyl]-amino]methyl]phenyl]-2E-2-propenamide (alternatively named (E)-N-Hydroxy-3-[4-({(2-hydroxy-ethyl)-[2-(1H-indol-3-yl)-ethyl]-amino}-methyl)-phenyl]-acrylamide; for the preparation see Example 3) (“HDAI”) are tested as single agents and together as combination therapy in a mouse model of adenomatous polyposis for the prevention and treatment of intestinal polyps. HDAI is administered intravenously to the mice at 10 mg/kg in a 5% (w/v) dextrose in water solution, q.d., 3 times per week for three weeks. COX is administered as a dietary admixture at a concentration of 125 ppm. % T/C is the quotient of the mean number of polyps in the treated mice divided by the mean number of polyps in the control mice times 100. The following results of duplicate experiments are observed: […]

The next series relates to intestinal polyps. Briefly: mouse model of adenomatous polyposis, prevention and treatment of intestinal polyps. The settings on record: COX 125 ppm in feed ad libitum, HDAI 10 mg/kg i.v. 3x/wk for three weeks. Type of series: in vivo. How it is done:
5-methyl-2-(2′-chloro-6′-fluoro-anilino)-phenyl acetic acid (alternatively named [2-(2′-chloro-6′-fluoro-phenylamino)-5-methyl-phenyl]acetic acid; for the preparation see Example 1) (“COX”) and N-hydroxy-3-[4-[[(2-hydroxyethyl)[2-(1H-indol-3-yl)ethyl]-amino]methyl]phenyl]-2E-2-propenamide (alternatively named (E)-N-Hydroxy-3-[4-({(2-hydroxy-ethyl)-[2-(1H-indol-3-yl)-ethyl]-amino}-methyl)-phenyl]-acrylamide; for the preparation see Example 3) (“HDAI”) are tested as single agents and together as combination therapy in a mouse model of adenomatous polyposis for the prevention and treatment of intestinal polyps. HDAI is administered intravenously to the mice at 10 mg/kg in a 5% (w/v) dextrose in water solution, q.d., 3 times per week for three weeks. COX is administered as a dietary admixture at a concentration of 125 ppm. % T/C is the quotient of the mean number of polyps in the treated mice divided by the mean number of polyps in the control mice times 100. The following results of duplicate experiments are observed:
Both agents alone cause a statistically significant reduction in the number of newly formed intestinal polyps. […] Statistical evaluations are performed using a one tailed Student t-test and all p values are less than 0.01.

Where [2] appears, read: second of duplicate experiments.

On to `Cc1ccc(Nc2c(F)cccc2Cl)c(CC(=O)O)c1` [COX, 5-methyl-2-(2′-chloro-6′-fluoro-anilino)-phenyl acetic acid], for which the results for the “% Body Wt. Change” value in series [1] (first of duplicate experiments) and in series [1] (setting [2]) were “+10 ± 0.1%” and “+8.1 ± 0.2%”, respectively. The Dead/Total animals in series [1] (first of duplicate experiments) and in series [1] (setting [2]) was 0/7 throughout. Further, the “% T/C (mean number of polyps treated / control x 100)” value with intestinal polyps (first of duplicate experiments) is recorded as 60%; in the series with intestinal polyps (setting [2]), 46%. Moreover, the “Mean Intestinal Polyp Count (# ± SEM)” value is 14 ± 0.7 # in the series on intestinal polyps (first of duplicate experiments) and 12 ± 0.3 # in the series on intestinal polyps (setting [2]).
As for `O=C(/C=C/c1ccc(CN(CCO)CCc2c[nH]c3ccccc23)cc1)NO` [HDAI, N-hydroxy-3-[4-[[(2-hydroxyethyl)[2-(1H-indol-3-yl)ethyl]-amino]methyl]phenyl]-2E-2-propenamide], the “% Body Wt. Change” value in series [1] (first of duplicate experiments) was “+3.5 ± 0.1%”; in series [1] (setting [2]), “+9.6 ± 0.1%”. Further, the Dead/Total animals in series [1] (first of duplicate experiments) and in series [1] (setting [2]) was 0/7 in each case. Moreover, the entries for the “% T/C (mean number of polyps treated / control x 100)” value in the series on intestinal polyps (first of duplicate experiments) and with intestinal polyps (setting [2]) were 52% and 57%, respectively. Also, the “Mean Intestinal Polyp Count (# ± SEM)” value with intestinal polyps (first of duplicate experiments) is recorded as 12 ± 0.57 #; with intestinal polyps (setting [2]) it was 15 ± 0.3 #.
